These results are taken from patent publication US9957253B2, “Triaminopyrimidine compounds useful for preventing or treating malaria” (MMV MEDICINES FOR MALARIA VENTURE, priority 2014, dated 2018).

Structures can show the parent of a compound that is named as a salt.

In one data set the test system is Plasmodium berghei. The experiment in a line: In vivo efficacy in the mouse malaria model (four day suppressive test). To be noted: P. berghei infected mice, growth of parasites in blood. As to the method: In Vivo Efficacy in the Mouse Malaria Model In vivo efficacy against blood stages was measured in mice infected with Plasmodium berghei after four (once daily) days of dosing by oral route. Detailed protocol for this four day suppressive test is described in Fidock et al 2004, Nature Reviews Drug Discovery (3), p 509.

In data set [1] the test system is hepatocytes. The experiment in a line: Metabolic stability assay (hepatocyte Clint), dog. The format is in vitro ADME. To be noted: 1 μM compound.
Data set [2] relates to hepatocytes. Briefly: Metabolic stability assay (hepatocyte Clint), human. The format is in vitro ADME. The following applies: 1 μM compound. Here is the method:
Metabolic Stability Assay (Rat/Human Hepatocyte Clint)
Viability of cryopreserved hepatocytes was determined using trypan blue and the cell concentration was adjusted to 10^6 cells per mL with Leibovitz L-15 Buffer. 1 μM compound (in Acetonitrile; 0.01% DMSO) was incubated with 500 μL of hepatocytes (1 million cells per mL) in a NUNC plate. Reaction was stopped at different time points (0, 5, 15, 30, 60, 90 and 120 min) by addition of 3 volumes of chilled acetonitrile to 100 μL of reaction mixture and centrifuged at 4° C. for 15 min. Supernatants were analyzed using LC-MS/MS for substrate depletion.

Data set [3] is described as follows: Blood:Plasma (BP) ratio, dog. The format is in vitro ADME. To be noted: 10 μM, 37° C., 30 min. Here is the method: Determination of Blood:Plasma (BP) Ratio
The incubation plate and the dog blood/plasma was preheated at 37° C. for 10 minutes. 2 μL of working solution of each compound was added to 398 μL of dog reference plasma or blood to achieve a final concentration of 10 μM. Plates were incubated at 37° C. with shaking for 30 min. After incubation, the blood samples are spun for 10 min. at 4,000 rpm (37° C.) and the plasma samples were stored at 37° C. Aliquots (100 μL) of plasma separated from centrifuged whole blood samples and reference plasma samples were transferred into 96-well plates. 400 μL of cold acetonitrile was added to precipitate protein and release compound. After vortexing for 10 min., plates were centrifuged for 30 min. at 4,000 rpm. 250 μL of the supernatant was transferred to new 96-well plates and centrifuged again at 4,000 rpm for 30 min. 100 μL of the supernatant was used for analysis by LC-MS/MS.

Data set [4] can be described thus: Plasma protein binding assay (equilibrium dialysis), dog. The format is in vitro ADME. As to the method: Plasma Protein Binding Assay
Protein binding is measured using the equilibrium dialysis technique. Compound is added to 10% plasma giving a concentration of 20 μM and dialysed with isotonic buffer for 18 hours at 37° C. The plasma and buffer solutions are analysed using generic LCUVMS and the first apparent binding constant for the compound derived. The binding constant is then used to determine the % free in 100% plasma.
Background: Equilibrium dialysis compares concentrations on both sides of a semipermeable membrane.

A short description of data set [5]: Prediction of hepatic blood clearance (well stirred model), dog.
In the next data set the target is human CYP 2C9 (Homo sapiens, UniProt P11712). The experiment in a line: Time dependent CYP inhibition assay, CYP 2C9. The format is in vitro ADME.
The next data set concerns the target T1, human CYP 1A2 (Homo sapiens, UniProt P05177).
T1 sequence (P05177 1-516): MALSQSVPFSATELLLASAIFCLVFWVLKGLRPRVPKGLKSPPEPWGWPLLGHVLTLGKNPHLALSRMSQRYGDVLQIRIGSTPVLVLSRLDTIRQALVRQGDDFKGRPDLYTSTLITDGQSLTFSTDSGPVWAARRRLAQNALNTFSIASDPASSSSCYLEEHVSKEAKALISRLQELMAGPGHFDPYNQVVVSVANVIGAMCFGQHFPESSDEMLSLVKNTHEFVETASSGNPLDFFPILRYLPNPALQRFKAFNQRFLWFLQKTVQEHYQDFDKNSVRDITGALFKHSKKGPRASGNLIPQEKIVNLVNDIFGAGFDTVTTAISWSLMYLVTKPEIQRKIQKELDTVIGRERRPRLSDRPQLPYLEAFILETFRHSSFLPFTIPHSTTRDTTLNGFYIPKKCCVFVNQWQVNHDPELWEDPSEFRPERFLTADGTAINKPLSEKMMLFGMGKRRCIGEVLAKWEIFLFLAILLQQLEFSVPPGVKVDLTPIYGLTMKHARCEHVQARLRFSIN
The experiment in a line: Time dependent CYP inhibition assay, CYP 1A2. The format is in vitro ADME.

Data set [6] in a line: Conversion of Example 13 to the active metabolite in liver microsomes, species comparison. The format is in vitro ADME, mouse, rat, human. The following applies: rank order of species. Here is the method: Metabolites of Example 13 were identified both in vitro and in vivo using the following models: • In vitro: The compound of Example 13 was incubated with human (HLM) or rat (RLM) liver microsomes (1 mg/ml protein concentration in 100 mM phosphate buffer, pH 7.4) at a final concentration of 10 μM in the presence of 2 mM NADPH. The reactive intermediates were trapped by including 2 mM glutathione (GSH) or N-acetyl cysteine (NAC) in the reaction mix. • In vivo in bile duct cannulated rats: Example 13 was administered intravenously (IV) as a bolus through the jugular vein at a dose of 2 mg/kg or 4 mg/kg of body weight for control (n=3) or BDC rats (n=2), respectively. Blood samples were collected at 0.083, 0.25, 0.5, 1, 2, 4, 6, 8 and 24 h through the carotid artery, bile samples were collected at 0-2 h, 2-4 h, 4-6 h, 6-8 h and 8-24 h intervals and urine samples were collected at 0-8 h and 8-24 h intervals. The bile and urine samples were analyzed for the presence of parent and metabolites and blood samples were analyzed for the presence of parent.
These studies supported the fact that the compound of Example 2 is an active metabolite of the compound of Example 13 and is formed both in vitro and in vivo.

Where [7] appears, read: 10 mg/kg oral once daily for four days.
[8] abbreviates: 30 mg/kg oral once daily for four days.
[9] abbreviates: 3 mg/kg oral once daily for four days.

Broadly, the % Inhibition is the change of the read-out against control, counted positive when it falls. Broadly, the IC50 is the concentration that inhibits the measured activity by half. Higher therefore signals lower potency.

human CYP 2C9, sequence (P11712 whole entry): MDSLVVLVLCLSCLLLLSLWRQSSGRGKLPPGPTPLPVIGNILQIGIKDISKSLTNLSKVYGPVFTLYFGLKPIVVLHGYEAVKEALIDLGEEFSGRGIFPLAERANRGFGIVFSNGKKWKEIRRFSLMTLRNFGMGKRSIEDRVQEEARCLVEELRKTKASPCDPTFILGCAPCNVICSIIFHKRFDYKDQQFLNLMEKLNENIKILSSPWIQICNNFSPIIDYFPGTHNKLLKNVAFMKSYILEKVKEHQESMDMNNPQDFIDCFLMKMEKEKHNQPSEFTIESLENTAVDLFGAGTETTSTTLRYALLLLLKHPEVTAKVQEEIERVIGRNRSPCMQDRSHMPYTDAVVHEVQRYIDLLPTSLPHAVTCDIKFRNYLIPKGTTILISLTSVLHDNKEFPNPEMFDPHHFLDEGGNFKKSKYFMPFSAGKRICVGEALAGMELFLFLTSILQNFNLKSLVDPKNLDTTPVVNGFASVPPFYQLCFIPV

On to `Cc1nc(Nc2ncc(N3CCN[C@H](C)C3)c(Nc3cnn(C)n3)n2)cc(C2CC2)c1Cl` [Example 10, (R)—N2-(5-chloro-4-cyclopropyl-6-methylpyridin-2-yl)-N4-(2-methyl-2H-1,2,3-triazol-4-yl)-5-(3-methylpiperazin-1-yl)pyrimidine-2,4-diamine dihydochloride], for which the entries for the “% Inhibition” value in the data set on Plasmodium berghei (setting [7]), in the data set on Plasmodium berghei (15 mg/kg oral once daily for four days) and in the data set on Plasmodium berghei (setting [8]) were 60%, 75% and 100%, respectively. Also, the “Hep. Clint” value in the data set on hepatocytes [1] turned out to be 5.1 μl/min/1E6; with hepatocytes [2] it was 1.8 μl/min/1E6. Also, the BP ratio in data set [3] amounted to 1.7. The compound further showed a Fup in data set [4] of 0.04. Further, the “Predicted CLh blood” value in data set [5] was 12.70 mL/min/kg. Further, the IC50 on human CYP 2C9 and at human CYP 1A2 was above 56 µM in each case.

In the case of `CCc1cc(Nc2ncc(N3CCN[C@H](C)C3)c(Nc3cc(C)n(C)n3)n2)nc(C)c1F` [Example 7, (R)—N4-(1,5-dimethyl-1H-pyrazol-3-yl)-N2-(4-ethyl-5-fluoro-6-methylpyridin-2-yl)-5-(3-methylpiperazin-1-yl)pyrimidine-2,4-diamine dihydrochloride], the “% Inhibition” value in the data set with Plasmodium berghei (setting [9]) turned out to be 6%; in the data set with Plasmodium berghei (setting [7]) it was 28%; with Plasmodium berghei (setting [8]), 100%. The “Hep. Clint” value in the data set with hepatocytes [2] is recorded as 2.7 μl/min/1E6. The IC50 against human CYP 2C9 and at human CYP 1A2 was above 56 µM each time.

As to `Cc1nc(Nc2ncc(N3CCN(C)[C@H](C)C3)c(Nc3cc(C)n(C)n3)n2)cc(C2CC2)c1F` [Example 13, (R)—N2-(4-cyclopropyl-5-fluoro-6-methylpyridin-2-yl)-N4-(1,5-dimethyl-1H-pyrazol-3-yl)-5-(3,4-dimethylpiperazin-1-yl)pyrimidine-2,4-diamine], the “% Inhibition” value in the data set on Plasmodium berghei (setting [9]) is 0%; in the data set on Plasmodium berghei (setting [7]) it was 42%; in the data set on Plasmodium berghei (setting [8]), 100%. Further, the “Hep. Clint” value in the data set with hepatocytes [1] is listed as 9.3 μl/min/1E6; in the data set on hepatocytes [2] it was 3.1 μl/min/1E6. For the same compound, the BP ratio in data set [3] was 1.35. The Fup in [4] amounted to 0.04. Also, in [5], the “Predicted CLh blood” value is 20.80 mL/min/kg. The IC50 on human CYP 2C9 and against human CYP 1A2 was above 56 µM throughout. Further, the “Percent conversion to the active metabolite (Example 2)” value in data set [6] is “highest in mouse, followed by rat and then human liver microsomes”.
